Measured values: PubChem BioAssay AID248 (DTP/NCI, 2004)
Where “and” joins values, the source holds several entries; their conditions need not be identical. Equal values may be shown once. Toxic doses and inconclusive results are not listed.

Tested on: L1210 leukemia ip in BDF1 mice, survival T/C
Test: NCI In Vivo Anticancer Drug Screen. Data for tumor model L1210 Leukemia (intraperitoneal) in B6D2F1 (BDF1) mice
Details: endpoint: mean survival time, higher = longer survival
How it was run: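 Read-out is survival time, reported as the treated-group measurement over the vehicle-control measurement.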

[1] = dose: 50.0 mg/kg/injection, schedule: Q01DX009 (ip), vehicle: saline
[2] = dose: 100.0 mg/kg/injection, schedule: Q01DX009 (ip), vehicle: saline
[3] = dose: 100.0 mg/kg/injection, schedule: Q04DX003 (ip), vehicle: saline
[4] = dose: 100.0 mg/kg/injection, schedule: Q01DX009 (ip), vehicle: Klucel (hydroxypropylcellulose) (HPC)
[5] = dose: 200.0 mg/kg/injection, schedule: Q01DX009 (ip), vehicle: Klucel (hydroxypropylcellulose) (HPC)
[6] = dose: 400.0 mg/kg/injection, schedule: Q01DX009 (ip), vehicle: Klucel (hydroxypropylcellulose) (HPC)
[7] = dose: 200.0 mg/kg/injection, schedule: Q04DX003 (ip), vehicle: saline
[8] = dose: 400.0 mg/kg/injection, schedule: Q04DX003 (ip), vehicle: saline

CC1C(C(=O)O)CC([N+](=O)[O-])C(Cl)C1[N+](=O)[O-] (centres undefined)
T/C (dose: 25.0 mg/kg/injection, schedule: Q01DX001 (ip), vehicle: carboxymethylcellulose (CMC)): 92 % of control
T/C (dose: 25.0 mg/kg/injection, schedule: Q04DX003 (ip), vehicle: carboxymethylcellulose (CMC)): 95 % of control
T/C (dose: 50.0 mg/kg/injection, schedule: Q01DX001 (ip), vehicle: carboxymethylcellulose (CMC)): 97 % of control
T/C (dose: 50.0 mg/kg/injection, schedule: Q01DX009 (ip), vehicle: carboxymethylcellulose (CMC)): 95 % of control and 102 % of control
T/C (dose: 50.0 mg/kg/injection, schedule: Q04DX003 (ip), vehicle: carboxymethylcellulose (CMC)): 98 % of control
T/C (dose: 100.0 mg/kg/injection, schedule: Q01DX001 (ip), vehicle: carboxymethylcellulose (CMC)): 102 % of control
T/C (dose: 100.0 mg/kg/injection, schedule: Q01DX009 (ip), vehicle: carboxymethylcellulose (CMC)): 90 % of control
T/C (dose: 100.0 mg/kg/injection, schedule: Q04DX002 (ip), vehicle: carboxymethylcellulose (CMC)): 101 % of control and 91 % of control
T/C (dose: 100.0 mg/kg/injection, schedule: Q04DX003 (ip), vehicle: carboxymethylcellulose (CMC)): 102 % of control
T/C (dose: 200.0 mg/kg/injection, schedule: Q04DX002 (ip), vehicle: carboxymethylcellulose (CMC)): 92 % of control and 105 % of control

CCN(CC)CCOC(=O)c1ccc(N)cc1
T/C (dose: 12.5 mg/kg/injection, schedule: Q01DX009 (ip), vehicle: saline): 97 % of control
T/C (dose: 25.0 mg/kg/injection, schedule: Q01DX009 (ip), vehicle: saline): 103 % of control
T/C (dose: 25.0 mg/kg/injection, schedule: Q04DX003 (ip), vehicle: saline): 101 % of control
T/C [1]: 100 % of control and 95 % of control
T/C (dose: 50.0 mg/kg/injection, schedule: Q04DX003 (ip), vehicle: saline): 111 % of control
T/C [2]: 100 % of control and 101 % of control
T/C [3]: 101 % of control

CC(=O)NCCCCCCNC(C)=O
T/C (dose: 10.0 mg/kg/injection, schedule: Q01DX Z (ip), vehicle: saline): 100 % of control
T/C (dose: 30.0 mg/kg/injection, schedule: Q01DX Z (ip), vehicle: saline): 104 % of control
T/C (dose: 100.0 mg/kg/injection, schedule: Q01DX Z (ip), vehicle: saline): 100 % of control
T/C (dose: 300.0 mg/kg/injection, schedule: Q01DX Z (ip), vehicle: saline): 100 % of control

COc1ccc(/C=C/c2nccc3ccccc23)cc1OC
T/C (dose: 50.0 mg/kg/injection, schedule: Q04DX002 (ip), vehicle: Klucel (hydroxypropylcellulose) (HPC)): 105 % of control
T/C (dose: 100.0 mg/kg/injection, schedule: Q04DX002 (ip), vehicle: Klucel (hydroxypropylcellulose) (HPC)): 102 % of control
T/C (dose: 200.0 mg/kg/injection, schedule: Q04DX002 (ip), vehicle: Klucel (hydroxypropylcellulose) (HPC)): 96 % of control and 108 % of control
T/C (dose: 400.0 mg/kg/injection, schedule: Q04DX002 (ip), vehicle: Klucel (hydroxypropylcellulose) (HPC)): 89 % of control

O=S(=O)(Sc1ccc(Cl)cc1)c1ccc(Cl)cc1
T/C (dose: 100.0 mg/kg/injection, schedule: Q04DX002 (ip), vehicle: gum acacia): 101 % of control
T/C (dose: 200.0 mg/kg/injection, schedule: Q04DX002 (ip), vehicle: gum acacia): 107 % of control and 91 % of control
T/C (dose: 400.0 mg/kg/injection, schedule: Q04DX002 (ip), vehicle: gum acacia): 104 % of control

CCOc1ccc(NC(=O)COc2ccc(Cl)cc2)cc1
T/C [4]: 88 % of control
T/C (dose: 100.0 mg/kg/injection, schedule: Q04DX003 (ip), vehicle: Klucel (hydroxypropylcellulose) (HPC)): 93 % of control
T/C [5]: 92 % of control
T/C (dose: 200.0 mg/kg/injection, schedule: Q04DX003 (ip), vehicle: Klucel (hydroxypropylcellulose) (HPC)): 101 % of control
T/C [6]: 87 % of control
T/C (dose: 400.0 mg/kg/injection, schedule: Q04DX003 (ip), vehicle: Klucel (hydroxypropylcellulose) (HPC)): 101 % of control

CC(=O)SCC(C)CCl (centres undefined)
T/C [3]: 102 % of control
T/C [7]: 107 % of control
T/C [8]: 104 % of control

C=CCSC(=S)SCc1cccc(Cl)c1
T/C [2]: 101 % of control
T/C (dose: 100.0 mg/kg/injection, schedule: Q04DX002 (ip), vehicle: saline): 100 % of control
T/C (dose: 200.0 mg/kg/injection, schedule: Q01DX009 (ip), vehicle: saline): 101 % of control
T/C (dose: 200.0 mg/kg/injection, schedule: Q04DX002 (ip), vehicle: saline): 100 % of control
T/C (dose: 400.0 mg/kg/injection, schedule: Q01DX009 (ip), vehicle: saline): 99 % of control
T/C (dose: 400.0 mg/kg/injection, schedule: Q04DX002 (ip), vehicle: saline): 97 % of control

CN(Cc1ccccc1)/N=N/c1nc[nH]c1C(N)=O
T/C (dose: 4.0 mg/kg/injection, schedule: Q01DX009 (ip), vehicle: saline with Tween-80): 98 % of control
T/C (dose: 8.0 mg/kg/injection, schedule: Q01DX009 (ip), vehicle: saline with Tween-80): 103 % of control
T/C (dose: 22.0 mg/kg/injection, schedule: Q01DX009 (ip), vehicle: saline with Tween-80): 98 % of control
T/C (dose: 25.0 mg/kg/injection, schedule: Q01DX009 (ip), vehicle: water): 122 % of control
T/C (dose: 35.0 mg/kg/injection, schedule: Q01DX009 (ip), vehicle: saline with Tween-80): 117 % of control
T/C (dose: 50.0 mg/kg/injection, schedule: Q01DX001 (ip), vehicle: water): 102 % of control
T/C [1]: 124 % of control
T/C (dose: 50.0 mg/kg/injection, schedule: Q04DX003 (ip), vehicle: water): 105 % of control
T/C (dose: 100.0 mg/kg/injection, schedule: Q01DX001 (ip), vehicle: other): 104 % of control
T/C (dose: 100.0 mg/kg/injection, schedule: Q01DX001 (ip), vehicle: water): 108 % of control
T/C (dose: 100.0 mg/kg/injection, schedule: Q01DX009 (ip), vehicle: acetone): 181 % of control
T/C (dose: 100.0 mg/kg/injection, schedule: Q01DX009 (ip), vehicle: water): 171 % of control and 175 % of control
T/C (dose: 100.0 mg/kg/injection, schedule: Q04DX003 (ip), vehicle: other): 102 % of control
T/C (dose: 200.0 mg/kg/injection, schedule: Q01DX001 (ip), vehicle: other): 108 % of control
T/C (dose: 200.0 mg/kg/injection, schedule: Q01DX001 (ip), vehicle: water): 113 % of control
T/C (dose: 200.0 mg/kg/injection, schedule: Q01DX009 (ip), vehicle: acetone): 150 % of control
T/C (dose: 200.0 mg/kg/injection, schedule: Q01DX009 (ip), vehicle: saline with Tween-80): 176 % of control
T/C (dose: 200.0 mg/kg/injection, schedule: Q01DX009 (ip), vehicle: water): 106 % of control and 113 % of control
T/C (dose: 200.0 mg/kg/injection, schedule: Q04DX003 (ip), vehicle: other): 122 % of control
T/C (dose: 400.0 mg/kg/injection, schedule: Q01DX001 (ip), vehicle: other): 112 % of control
T/C (dose: 400.0 mg/kg/injection, schedule: Q01DX009 (ip), vehicle: acetone): 87 % of control
T/C (dose: 400.0 mg/kg/injection, schedule: Q04DX003 (ip), vehicle: other): 155 % of control

CN1C(=O)C=C(N)C1=O
T/C [3]: 96 % of control
T/C [7]: 94 % of control
T/C [8]: 91 % of control

O=C1CCC(=O)N1C(=O)c1ccccc1
T/C (dose: 100.0 mg/kg/injection, schedule: Q01DX Z (ip), vehicle: methylcellulose (MC)): 104 % of control
T/C (dose: 150.0 mg/kg/injection, schedule: Q01DX Z (ip), vehicle: methylcellulose (MC)): 102 % of control
T/C (dose: 225.0 mg/kg/injection, schedule: Q01DX Z (ip), vehicle: methylcellulose (MC)): 95 % of control

COc1cc(OC)c(NC(=O)NC(C)(C)C)cc1Cl
T/C [4]: 93 % of control
T/C [5]: 95 % of control
T/C [6]: 98 % of control

CCOc1cc(/C=N\NC(=O)CCCC(=O)N/N=C/c2ccc(O)c(OCC)c2)ccc1O
T/C (dose: 200.0 mg/kg/injection, schedule: Q01DX001 (ip), vehicle: carboxymethylcellulose (CMC)): 95 % of control

O=[N+]([O-])c1cccc(P(=O)(O)O)c1
T/C (dose: 50.0 mg/kg/injection, schedule: Q01DX001 (ip), vehicle: saline): 115 % of control
T/C (dose: 100.0 mg/kg/injection, schedule: Q01DX001 (ip), vehicle: saline): 107 % of control
T/C (dose: 200.0 mg/kg/injection, schedule: Q01DX001 (ip), vehicle: saline): 97 % of control
T/C (dose: 400.0 mg/kg/injection, schedule: Q01DX001 (ip), vehicle: saline): 103 % of control
